Results published in patent EP0646574A1, “Ketonic indane derivatives, their preparation and therapeutic application thereof” (LABORATOIRE INNOTHERA Société Anonyme, priority 1993, dated 1995).

Columns and labels:
[1] = tested on: veines saphènes de lapin; experiment: contraction of isolated rabbit saphenous veins produced by KCl (40 mM); details: for EC50: potentiation of KCl (40 mM) contractions of rabbit saphenous veins, read-out: DE50 (the source's name)
Source text: L'effet contractile est mesuré in vitro : • par la force de contraction développée par des anneaux vasculaires quiescents ou stimulés (soit électriquement soit par des agents physiologiques) et maintenus dans des conditions isométriques, • par la pression développée par des réseaux vasculaires perfusés à débit constant.
Les composés de formule (1) et leurs sels éventuels augmentent la contraction des veines saphènes animales produite par la noradrénaline et la dépolarisation (solution hyperpotassique) sans affecter, dans la majorité des cas, les réponses contractiles artérielles. A titre illustratif, les composés des exemples 3, 5, 8, 11, 13, 15, 31 (10 nM à […]) augmentent de plus de 40 % (DE50 ± 0,3 microM) les contractions des veines saphènes de lapin produites par le KCl (40 mM).

[2] = tested on: hyperperméabilité vasculaire induite par le zymosan; experiment: vascular hyperpermeability induced by zymosan, in vivo; details: 2 and 4 hours after per os 1 à 20 mg/kg
Source text: La perméabilité vasculaire est étudiée in vivo et in vitro par la mesure de l'extravasation d'albumine ou de colorant liant l'albumine (Bleu Evans). In vivo, l'hyperperméabilité est induite par l'injection d'une solution d'histamine, de bradykinine ou de zymosan. Les modèles in vitro permettent de réaliser des hyperpressions (sur un territoire vasculaire isolé) et/ou des réactions vasculaires inflammatoires.
A titre illustratif, les composés des exemples 28, 27, 25 diminuent l'hyperperméabilité vasculaire induite par le zymosan lorsque celle-ci est mesurée 2 et 4 heures après administration per os de 1 à 20 mg/kg.

[3] = tested on: rat; experiment: carrageenan-induced pleurisy in the rat; format: in vivo; details: twice i.p. 5 mg/kg, 6 hours after carrageenan injection
Description: L'activité antiinflammatoire est démontrée par la mesure de l'inhibition de l'oedème et de la migration leucocytaire après induction d'une pleurésie chez le rat par injection de carragénine dans la cavité pleurale (Almeida et col., J. Pharmacol. Exp. Therap., 1980, 214 : 74).
A titre illustratif, les composés des exemples 21, 23 administrés deux fois en i.p. à la dose de 5 mg/kg inhibent l'oedème et la migration leucocytaire dans la cavité pleurale, 6 heures après injection de carragénine dans le modèle de la pleurésie chez le rat.

[4] = free radical scavenging with DPPH as stable free radical; details: DPPH model
Source text: L'effet "piégeur de radicaux libres" global est étudié in vitro par un modèle utilisant le 1,1-diphényl-2-picrylhydrazyl (DPPH) comme radical libre stable, méthode dérivée de celle décrite par Lamaison et col., Plantes Médic. et Phytothérapie, XXII, 1988, 231-234.

Nc1cccc(NC(=O)NN=c2c(=O)c3ccccc3c2=O)c1 [exemple 3, 2-[(3-Aminophenyl)aminocarbonylhydrazono]-2.3-dihydro1.3-dioxo-1H-indène]
augmentation des contractions des veines saphènes de lapin produites par le KCl (40 mM) [1]: > 40%
EC50 [1]: ~300 nM

O=C(NN=c1c(=O)c2ccc(F)cc2c1=O)Nc1ccc(F)cc1 [exemple 28]
hyperperméabilité vasculaire induite par le zymosan [2]: diminuent

Nc1ccc(NC(=O)NN=c2c(=O)c3ccccc3c2=O)cc1 [exemple 5, 2-[(4-Aminophenyl)aminocarbonylhydrazono]-2.3-dihydro-1.3-dioxo-1H-indène]
augmentation des contractions des veines saphènes de lapin produites par le KCl (40 mM) [1]: > 40%
EC50 [1]: ~300 nM

O=C(NN=c1c(=O)c2ccc(F)cc2c1=O)Nc1ccncc1 [exemple 31, 2.3-Dihydro-1.3-dioxo-5-fluoro-2-[(4-pyridyl)aminocarbonylhydrazono]-1H-indène]
augmentation des contractions des veines saphènes de lapin produites par le KCl (40 mM) [1]: > 40%
EC50 [1]: ~300 nM

O=C(NN=c1c(=O)c2cccc(F)c2c1=O)Nc1ccccc1 [exemple 21, 2.3-Dihydro-1.3-dioxo-4-fluoro-2-(phenylaminocarbonylhydrazono)-1H-indène]
migration leucocytaire dans la cavité pleurale [3]: inhibent
oedème [3]: inhibent

O=C(NN=c1c(=O)c2ccccc2c1=O)Nc1ccc([N+](=O)[O-])cc1 [exemple 9, 2.3-Dihydro-1.3-dioxo-2-(4-nitrophenylaminocarbonylhydrazono)-1H-indène]
effet antiradicalaire [4]: présentent un effet antiradicalaire

O=C(NN=c1c(=O)c2ccccc2c1=O)Nc1ccccc1[N+](=O)[O-] [exemple 7, 2.3-Dihydro-1.3-dioxo-2-[(2-nitrophenyl)aminocarbonylhydrazono]-1H-indène]
effet antiradicalaire [4]: présentent un effet antiradicalaire

O=C(NN=c1c(=O)c2ccccc2c1=O)Nc1cccnc1 [exemple 13, 2.3-Dihydro-1.3-dioxo-2-[(3-pyridyl)aminocarbonylhydrazono]-1H-indène]
augmentation des contractions des veines saphènes de lapin produites par le KCl (40 mM) [1]: > 40%
EC50 [1]: ~300 nM

O=C(NN=c1c(=O)c2cccc(F)c2c1=O)Nc1ccncc1 [exemple 25, 2.3-Dihydro-1.3-dioxo-4-fluoro-2-[(4-pyridyl)aminocarbonylhydrazono]-1H-indène]
hyperperméabilité vasculaire induite par le zymosan [2]: diminuent

O=C(NN=c1c(=O)c2ccccc2c1=O)Nc1ccccn1 [exemple 11, 2.3-Dihydro-1.3-dioxo-2-[(2-pyridyl)aminocarbonylhydrazono]-1H-indène, chlorhydrate]
augmentation des contractions des veines saphènes de lapin produites par le KCl (40 mM) [1]: > 40%
EC50 [1]: ~300 nM

O=C(NN=c1c(=O)c2ccc(F)cc2c1=O)Nc1ccccc1 [exemple 27, 2.3-Dihydro-1.3-dioxo-5-fluoro-2-(phenylaminocarbonylhydrazono)-1H-indène]
hyperperméabilité vasculaire induite par le zymosan [2]: diminuent

O=C(NN=c1c(=O)c2cccc(F)c2c1=O)Nc1cccnc1 [exemple 23, 2.3-Dihydro-1.3-dioxo-4-fluoro-2-[(3-pyridyl)aminocarbonylhydrazono]-1H-indène]
migration leucocytaire dans la cavité pleurale [3]: inhibent
oedème [3]: inhibent

O=C(NN=c1c(=O)c2ccccc2c1=O)Nc1cccc([N+](=O)[O-])c1 [exemple 8, 2.3-Dihydro-1.3-dioxo-2-[(3-nitrophenyl)aminocarbonylhydrazono]-1H-indène]
augmentation des contractions des veines saphènes de lapin produites par le KCl (40 mM) [1]: > 40%
EC50 [1]: ~300 nM
